Test results from article PMC10593844, “Structure-function analyses reveal key molecular determinants of HIV-1 CRF01_AE resistance to the entry inhibitor temsavir” (Nature Communications, 2023).
“And” between values parts separate entries of the source, which are not always exact repeats. Equal values may be shown once. Read-outs that look alike come from different tables or passages of the source.

What was measured:
[1] = tested on: HIV-1 pseudovirus bearing EnvJR-FL WT; experiment: organism not typed; assay type: cell-based; conditions: for Relative infectivity (%): JRFL WT
[2] = tested on: HIV-1 pseudovirus bearing EnvJR-FL S375T; experiment: organism not typed; assay type: cell-based; conditions: for Relative infectivity (%): JRFL S375T
[3] = tested on: HIV-1 pseudovirus bearing EnvJR-FL S375N; experiment: organism not typed; assay type: cell-based; conditions: for Relative infectivity (%): JRFL S375N
[4] = tested on: HIV-1 pseudovirus bearing EnvJR-FL S375H; experiment: organism not typed; assay type: cell-based; conditions: for Relative infectivity (%): JRFL S375H
[5] = tested on: HIV-1 pseudovirus bearing EnvJR-FL S375F; experiment: organism not typed; assay type: cell-based
[6] = tested on: HIV-1 pseudovirus bearing CRF01_AE 92TH023 Env LMHS; experiment: organism not typed; assay type: cell-based; conditions: for Relative infectivity (%): 92TH023 LMHS
[7] = tested on: HIV-1 pseudovirus bearing CRF01_AE CM244 Env LMHS; experiment: organism not typed; assay type: cell-based; conditions: for Relative infectivity (%): CM244 LMHS
[8] = tested on: HIV-1 pseudovirus bearing clade B YU2 Env S375T; experiment: organism not typed; assay type: cell-based; conditions: for Relative infectivity (%): YU2 S375T
[9] = tested on: HIV-1 pseudovirus bearing clade B YU2 Env S375H; experiment: organism not typed; assay type: cell-based; conditions: for Relative infectivity (%): YU2 S375H
[10] = tested on: HIV-1 pseudovirus bearing clade B YU2 Env LM; experiment: organism not typed; assay type: cell-based; conditions: for Relative infectivity (%): YU2 LM
[11] = tested on: HIV-1 pseudovirus bearing clade B YU2 Env H105Q/I108V; assay type: cell-based
[12] = tested on: HIV-1JR-FL Env WT on HEK293T cells; assay type: binding; conditions: JRFL WT; temsavir 10 µM; listed as TMR
[13] = tested on: HIV-1JR-FL Env S375T on HEK293T cells; assay type: binding; conditions: JRFL S375T; temsavir 10 µM; listed as TMR
[14] = tested on: HIV-1JR-FL Env S375H on HEK293T cells; assay type: binding; conditions: JRFL S375H; temsavir 10 µM; listed as TMR
[15] = tested on: HIV-1JR-FL Env S375Y on HEK293T cells; assay type: binding; conditions: JRFL S375Y; temsavir 10 µM; listed as TMR
[16] = tested on: CRF01_AE 92TH023 Env WT on HEK293T cells; assay type: binding; conditions: 92TH023 WT; temsavir 10 µM; listed as TMR
[17] = tested on: CRF01_AE 92TH023 Env H375T on HEK293T cells; assay type: binding; conditions: 92TH023 H375T; temsavir 10 µM; listed as TMR
[18] = tested on: CRF01_AE 92TH023 Env LMHS on HEK293T cells; assay type: binding; conditions: 92TH023 LMHS; temsavir 10 µM; listed as TMR
[19] = tested on: CRF01_AE CM244 Env WT on HEK293T cells; assay type: binding; conditions: temsavir 10 µM, listed as TMR
[20] = target: T1, clade B YU2 Env WT on HEK293T cells (Human immunodeficiency virus type 1 group M subtype B, UniProt P35961); assay type: binding; conditions: temsavir 10 µM, listed as TMR
T1 construct: expressed in transfected cells; host or cells: HEK293T (pSVIIIenv co-transfected with a Tat expressor)

[21] = target: T2, clade B YU2 Env S375H on HEK293T cells (Human immunodeficiency virus type 1 group M subtype B, UniProt P35961, S370H); assay type: binding; conditions: temsavir 10 µM, listed as TMR
T2 construct: expressed in transfected cells; host or cells: HEK293T (pSVIIIenv co-transfected with a Tat expressor)

[22] = tested on: panel of 208 HIV-1 Envs from different clades; conditions: cited from earlier work; for IC50: read-out: Neutralization IC50
CRF01_AE strains = tested on: CRF01_AE strains; parameters: method as in PMID 30604750; conditions: CRF01_AE strains; cited from earlier work
HIV-1 Env with Ile475 = tested on: HIV-1 Env with Ile475; parameters: method as in PMID 28825711; conditions: Ile475 substitution; cited from earlier work

COc1cnc(-n2cnc(C)n2)c2[nH]cc(C(=O)C(=O)N3CCN(C(=O)c4ccccc4)CC3)c12 [Temsavir, temsavir]
IC50 ([1]; Cf2Th-CD4/CCR5): 0.36 nM | Relative infectivity (%) ([1]; Temsavir 0.1 nM): 88.4413% and 81.9041% and 67.8312% | Relative infectivity (%) ([1]; Temsavir 5 nM): 0.09027% and 0.782% and 0.1663% | Relative infectivity (%) ([1]; Temsavir 25 nM): 0.07266% and 0.1285% and 0.09925% and 0.3863% | Relative infectivity (%) ([1]; Temsavir 100 nM): 0.1307% and 0.3086% and 0.1992% and 0.5674% | IC50 ([2]; Cf2Th-CD4/CCR5): 0.43 nM | Relative infectivity (%) ([2]; Temsavir 0.1 nM): 69.2755% and 98.112% and 68.2496% | Relative infectivity (%) ([2]; Temsavir 5 nM): 1.701% and 2.403% and 0.1043% | Relative infectivity (%) ([2]; Temsavir 25 nM): 0.2129% and 0.1167% and 0.02715% and 9.3062% | Relative infectivity (%) ([2]; Temsavir 100 nM): 0.02755% and 0.0119% and 0.01656% and 2.113% | IC50 ([3]; Cf2Th-CD4/CCR5): 1.22 nM | Relative infectivity (%) ([3]; Temsavir 0.1 nM): 85.6384% and 86.7177% and 89.7623% | Relative infectivity (%) ([3]; Temsavir 0.5 nM): 73.4943% and 55.2266% and 75.8961% | Relative infectivity (%) ([3]; Temsavir 25 nM): 4.928% and 3.547% and 2.352% and 8.953% | Relative infectivity (%) ([3]; Temsavir 100 nM): 2.171% and 1.397% and 0.7541% and 3.487% | IC50 ([4]; Cf2Th-CD4/CCR5): > 100 nM | Relative infectivity (%) ([4]; Temsavir 0.1 nM): 97.5172% and 99.7027% and 99.1558% | Relative infectivity (%) ([4]; Temsavir 0.5 nM): 94.7921% and 100.166% and 82.7419% | Relative infectivity (%) ([4]; Temsavir 1 nM): 92.4628% and 111.302% and 80.2089% | Relative infectivity (%) ([4]; Temsavir 5 nM): 89.7935% and 91.5252% and 60.6402% | Relative infectivity (%) ([4]; Temsavir 25 nM): 193.211% and 192.383% and 121.78% and 152.325% | Relative infectivity (%) ([4]; Temsavir 100 nM): 67.6822% and 45.331% and 44.6004% and 67.6402% | IC50 ([5]; Cf2Th-CD4/CCR5): > 100 nM | Relative infectivity (%) ([5]; JRFL S375F, Temsavir 0.1 nM): 97.0588% and 121.506% and 78.411% | Relative infectivity (%) ([6]; Temsavir 1 nM): 49.3528% and 37.816% and 43.3804% | Relative infectivity (%) ([6]; Temsavir 5 nM): 29.4428% and 33.6115% and 29.1035% | Relative infectivity (%) ([6]; Temsavir 10 nM): 21.0612% and 17.7261% and 12.1457% | Relative infectivity (%) ([6]; Temsavir 50 nM): 7.315% and 6.366% and 6.4059% | IC50 ([6]; Cf2Th-CD4/CCR5): 0.89 nM | Relative infectivity (%) ([7]; Temsavir 5 nM): 5.229% and 3.403% and 2.611% | Relative infectivity (%) ([7]; Temsavir 10 nM): 1.16% and 4.177% and 2.605% | Relative infectivity (%) ([7]; Temsavir 50 nM): 0.3118% and 0.2016% and 0.39% | IC50 ([7]; Cf2Th-CD4/CCR5): 0.7 nM | IC50 ([8]; Cf2Th-CD4/CCR5): 0.73 nM | Relative infectivity (%) ([8]; Temsavir 1 nM): 32.779% and 22.5844% and 35.0676% | Relative infectivity (%) ([8]; Temsavir 5 nM): 2.479% and 1.401% and 1.77% | Relative infectivity (%) ([8]; Temsavir 10 nM): 0.4727% and 0.2789% and 0.1619% | Relative infectivity (%) ([8]; Temsavir 50 nM): 0.1346% and 0.1101% and 0.1511% | Relative infectivity (%) ([8]; Temsavir 100 nM): 0.1098% and 0.1253% and 0.1727% | IC50 ([9]; Cf2Th-CD4/CCR5): 22.9 nM | Relative infectivity (%) ([9]; Temsavir 1 nM): 63.2919% and 87.0597% and 84.5852% | Relative infectivity (%) ([9]; Temsavir 5 nM): 57.7086% and 71.798% and 64.2482% | Relative infectivity (%) ([9]; Temsavir 10 nM): 66.6494% and 65.3275% and 50.1024% | Relative infectivity (%) ([9]; Temsavir 50 nM): 26.1516% and 30.7973% and 25.917% | Relative infectivity (%) ([9]; Temsavir 100 nM): 13.7111% and 12.275% and 13.4865% | IC50 ([10]; Cf2Th-CD4/CCR5): 9.17 nM | Relative infectivity (%) ([10]; Temsavir 1 nM, Fig 2f): 76.4591% and 76.4018% and 119.182% | Relative infectivity (%) ([10]; Temsavir 2 nM, Fig S1): 74.57% and 102.72% and 96.57% | Relative infectivity (%) ([10]; Temsavir 5 nM, Fig 2f): 65.3412% and 84.0034% and 74.4376% | Relative infectivity (%) ([10]; Temsavir 10 nM, Fig 2f): 41.1017% and 43.3512% and 50.8185% | Relative infectivity (%) ([10]; Temsavir 10 nM, Fig S1): 72.47% and 80.59% and 43.3% | Relative infectivity (%) ([10]; Temsavir 50 nM, Fig 2f): 13.0704% and 12.6708% and 13.2107% | Relative infectivity (%) ([10]; Temsavir 50 nM, Fig S1): 31.31% and 45.33% and 30.59% | Relative infectivity (%) ([10]; Temsavir 100 nM, Fig 2f): 5.153% and 3.308% and 7.353% | Relative infectivity (%) ([10]; Temsavir 100 nM, Fig S1): 8.15% and 12.22% and 6.99% | Relative infectivity (%) ([11]; Temsavir 5 nM): 1.06% and 2.62% and 1.23% | Relative infectivity (%) ([11]; Temsavir 10 nM): 1.04% and 2.29% and 1.51% | Relative infectivity (%) ([11]; Temsavir 50 nM): 0.98% and 2.22% and 1.35% | Relative infectivity (%) ([11]; Temsavir 100 nM): 1.01% and 5.2% and 2.05% | sCD4 binding (+TMR) - Fold over DMSO [12]: 0.09994 and 0.08955 and 0.1163 | sCD4 binding (+TMR) - Fold over DMSO [13]: 0.1797 and 0.1688 and 0.2064 | sCD4 binding (+TMR) - Fold over DMSO [14]: 1.158 and 1.01 and 1.118 | sCD4 binding (+TMR) - Fold over DMSO [15]: 1.015 and 0.9829 and 1.003 | sCD4 binding (+TMR) - Fold over DMSO [16]: 0.9655 and 0.9282 and 0.9905 | sCD4 binding (+TMR) - Fold over DMSO [17]: 0.7474 and 0.9648 and 0.9745 | sCD4 binding (+TMR) - Fold over DMSO [18]: 0.3873 and 0.484 and 0.5948 | sCD4 binding (+TMR) - Fold over DMSO [19]: 1.042 and 0.9403 and 0.9549 | sCD4 binding (+TMR) - Fold over DMSO [20]: 0.4934 and 0.673 and 0.6222 | sCD4 binding (+TMR) - Fold over DMSO [21]: 1.163 and 1.208 and 0.9124 | IC50 ([22]; Fig 2a, Env strains with Y61, ref Pancera et al.): 0.0004 µM | IC50 ([22]; individual strains with H375): > 20 µM and 18.1 µM and 4.04 µM and 8.52 µM and 12.7 µM and 4.77 µM and 2.81 µM and 13 µM and 4.13 µM and 5.13 µM | IC50 ([22]; individual strains with S375): 0.012 µM | IC50 ([22]; individual strains, CRF01_AE): > 20 µM and 18.1 µM and 4.04 µM and 8.52 µM and 12.7 µM and 4.77 µM and 2.81 µM and 13 µM and 4.13 µM and 5.13 µM | active against % of a panel of 208 HIV-1 Envs ([22]; whole panel, different clades): 91% | IC50 (CRF01_AE strains): > 5.8 µM | fold reduction in temsavir activity (HIV-1 Env with Ile475): ~ 90 fold
